Data published in patent US8715745B2 (priority 2009, dated 2014).

How the values were obtained:
[1] = test system: Staphylococcus aureus, Escherichia coli, Aspergillus niger and A. flavus; conditions: literature report, Proceedings of the National Academy of Sciences, India 1991; cited from earlier work
Phytophthora capsici = experiment: In vitro fungitoxicity (growth inhibition) against Phytophthora capsici in copper-minus AS and copper-plus AS medium; type: cell-based; conditions: for % Inhn Plus copper Predicted: 0.050 μg/mL, Colby formula
Method: In vitro fungitoxicity assays against Phytophthora capsici were conducted using the asparagine-sucrose (AS) medium described in Canadian Journal of Microbiology 1961, 7, 15-25, except that copper micronutrient, normally included as CuSO4, was omitted. The medium, termed “copper-minus AS”, was prepared by dissolving 2 g asparagine, 0.43 g KH2PO4, 0.3 g K2HPO4, 0.4 mL of a 0.5 mg/mL thiamine-HCl solution and 15 g sucrose in 1 liter of deionized water and treating the solution with 0.5 g Chelex 100 resin (Bio-Rad Analytical grade, 50-100 mesh, sodium form, cat#142-2822) by stirring at room temperature for 1 h. The pH was adjusted to 6.4, then MgSO4.7H2O (100 μg/mL), FeSO4.7H2O (1 μg/mL), CaCl2 (50 μg/mL), ZnSO4.7H2O (1 μg/mL), NaMoO4.2H2O (0.2 μg/mL) and MnCl2.4H2O (0.2 μg/mL) were added and the entire medium was sterilized by filtration. “Copper-plus AS” medium was prepared by adding CuCl2.2H2O to the copper-minus AS medium at 100 μM. Test compounds were dissolved in DMSO then dilutions in copper-minus AS and copper-plus AS media were prepared as 100 μL aliquots in flat-bottomed 96-well microtiter plates.
Phytophthora capsici was grown on petri plates, 9 cm in diameter, containing 15 mL V-8 agar, pH 7.0, containing 200 mL V-8 juice, 4 g CaCO3, and 20 g agar per liter. Plates were inoculated with 7-mm plugs from a 1-week old culture, incubated at 25° C. in the dark for 3 days, and then placed under fluorescent lights for 4 days to induce sporulation. Zoospore release from sporangia was induced by adding 15 mL of sterile deionized water (which had been treated with Chelex 100 resin using 0.5 g resin per liter of water by stirring at room temperature for 1 h) to each plate, and incubating for 10 min at 25° C. followed by 20 min at 4° C. The plates were returned to 25° C. for 10 min and the aqueous suspension of released zoospores was recovered. The zoospore suspension was adjusted to 5×10^4 spores/mL by dilution into Chelex 100-treated water. Microtiter plates were inoculated with 100 μL of spore suspension and incubated at 25° C. for 48 h before assessing fungal growth by measuring light scattering in a NepheloStar plate reader. Growth inhibition was determined by comparing growth in the presence of test compound with growth in control wells lacking test compound.
Results for growth inhibition by test compounds in copper-plus AS medium (“% Inhn Plus Copper Observed”) were compared with predicted values (“% Inhn Plus Copper Predicted”) that were calculated using the formula set forth by S. R. Colby in Weeds (1967), 15, 20-22 based on results obtained for the same compounds in copper-minus AS medium (“% Inhn Minus Copper Observed”) and the inhibition attributed to copper chloride alone, as determined by comparing growth in copper-minus AS and copper-plus AS media without any test compound across experiments. Results illustrate that hydrazones and copper produce a synergistic fungitoxic effect towards Phytophthora capsici.

Ustilago maydis = experiment: In vitro fungitoxicity (growth inhibition) against Ustilago maydis in copper-minus and copper-plus medium; type: cell-based; conditions: for % Inhn. Plus copper Predicted: 1 μg/mL, Colby formula
Method: (§1) In vitro fungitoxicity assays against Ustilago maydis were conducted using the copper-minus medium described in Example 5. Medium containing copper was prepared by adding CuCl2.2H2O to the copper-minus medium at 20 μM. Test compounds were dissolved in dimethylsulfoxide (DMSO) at 200 μg/mL and 1 μL aliquots were added to two wells of flat-bottomed 96-well microtiter plates. Copper-minus medium (100 μL) was added to one of the wells and copper-plus medium to the second well. Control wells, included for each medium, received 1 uL DMSO and 100 μL of medium.
Ustilago maydis was grown in 50 mL potato dextrose broth with shaking at 25° C. for 24 h. A 10 mL aliquot of the culture was centrifuged at 2000 rpm for 2 min, resuspended in 10 mL of sterile Chelex 100-treated water, and centrifuged again. The spores were resuspended in copper-minus medium, and the suspension adjusted to a concentration of 1×10^5 spores per mL. Microtiter plate wells containing test compound of DMSO (control) as described above were inoculated with 100 μL of this spore suspension and the plates incubated at 25° C. for 48 h before assessing fungal growth by measuring light scattering in a NepheloStar plate reader. Growth inhibition was determined by comparing growth in the presence of test compound with growth in control wells lacking test compound.
Results for growth inhibition by test compounds at 1 μg/mL in copper-plus medium (“% Inhn Plus Copper Observed”) were compared with predicted results (“% Inhn Plus Copper Predicted”) that were calculated using the formula set forth by S. R. Colby in Weeds 1967, 15, 20-22 based on results obtained for the same compounds in copper-minus medium (“% Inhn Minus Copper Observed”) and the inhibition attributed to copper chloride alone, as determined by comparing growth in copper-minus and copper-plus media without any test compound. Results illustrate that hydrazones and copper produce a synergistic fungitoxic effect towards Ustilago maydis.

[2] = test system: Septoria tritici isolate USA-184; experiment: In vitro fungitoxicity (growth inhibition) against Septoria tritici in copper-minus and copper-plus medium; type: cell-based; conditions: CuCl2 1 μM without test compound
Method: as §1, with “Septoria tritici” for “Ustilago maydis”, “2” for “20”, “10” for “200”
Septoria tritici isolate USA-184 was grown on potato dextrose agar at 18° C. under black lights for 3 days. A loopful of spores was transferred from the culture to a 15 mL tube containing 5 mL of sterile Chelex-treated water. The spores were centrifuged at 2000 rpm for 2 min, resuspended in 10 mL water, and centrifuged again. […] Microtiter plate wells containing test compound of DMSO (control) as described above were inoculated with 100 μL of this spore suspension and the plates incubated at 25° C. for 90 h before assessing fungal growth by measuring light scattering in a NepheloStar plate reader. Growth inhibition was determined by comparing growth in the presence of test compound with growth in control wells lacking test compound. […]

[3] = test system: Leptosphaeria nodorum (LEPTNO); experiment: In vitro fungitoxicity (growth inhibition) against Leptosphaeria nodorum in copper-minus and copper-plus medium; type: cell-based; conditions: 0.05 μg/mL, 72 h
Method: In vitro fungitoxicity assays against Leptosphaeria nodorum (LEPTNO) were conducted using the liquid growth medium described by Coursen and Sisler (American Journal of Botany 1960, 47, 541-549) except that copper micronutrient, normally included as CuSO4, was omitted. The medium, termed “copper-minus”, was prepared by dissolving 10 g glucose, 1.5 g K2HPO4, 2 g KH2PO4 and 1 g (NH4)2SO4 in 1 liter of deionized water and treating the solution with 0.5 g Chelex 100 resin (Bio-Rad Analytical grade, 50-100 mesh, sodium form, cat#142-2822) by stirring at room temperature for 1 h. MgSO4.7H2O (0.5 g) was added, and stirring was continued for a further hour. Trace elements (minus CuSO4), and vitamins described by Coursen and Sisler were added from concentrated stock solutions and the entire medium was sterilized by filtration. Medium containing copper was prepared by adding CuCl2.2H2O to the copper-minus medium at 20 μM. […]
LEPTNO was grown on potato dextrose agar in 9 cm diameter petri dishes for 7 days. […] Microtiter plates were inoculated with 100 μL of this spore suspension and the plates incubated at 25° C. for 72 h before assessing fungal growth by measuring light scattering in a NepheloStar plate reader. Growth inhibition was determined by comparing growth in the presence of test compound with growth in control wells lacking test compound. […]

Phytophthora infestans = type: in vivo, Phytophthora infestans on tomato plant; conditions: 50 ppm hydrazone with 50 μM CuCl2.2H2O, applied 24 h before inoculation, assessed 7 days after inoculation, tomato

## O=C(NN=Cc1ccccc1O)c1ccccc1O [o-hydroxybenzaldehyde-N-salicyloylhydrazone]
[1]
  antimicrobial activity: Antimicrobial activity has been reported

## Cc1ccc(C(=O)N/N=C/c2ccc(Cl)c(Cl)c2O)c(O)c1 [Compound 20]
Phytophthora capsici
  % Inhn Plus copper Predicted: 4.5%
Ustilago maydis
  % Inhn. Plus copper Predicted: 69.6%

## O=C(N/N=C/c1c(O)cccc1Cl)c1ccc([N+](=O)[O-])cc1 [Compound 50]
Phytophthora capsici
  % Inhn Plus copper Predicted: 5.1%
Ustilago maydis
  % Inhn. Plus copper Predicted: 20.4%

## O.O.[Cl][Cu][Cl] [CuCl2, CuCl2.2H2O, reference compound]
Phytophthora capsici; CuCl2 50 uM without test compound, across experiments
  % Inhn, copper chloride alone: 4.5 ± 7.9%
Ustilago maydis; CuCl2 10 μM without test compound
  % Inhn., copper chloride alone: 11.9%
[2]
  % Inhibition, copper chloride alone: 0%
[2]; listed as copper chloride
  % Inhibition, copper chloride alone: no effect on growth

## O=C(N/N=C/c1cc(Cl)c(Cl)cc1O)c1ccccc1 [Compound 5]
[3]; copper-plus medium (CuCl2, 10 μM)
  LEPTNO % Inhn. Plus Copper Observed: 97.8%
[3]; Parastagonospora nodorum, copper-minus medium, read-out: LEPTNO % Inhn. Minus Copper Observed
  inhibition of growth at 0.05 µg/mL: 0.1%
Phytophthora infestans
  TLB % Control: 66.1%
other
  melting point: 206 to 208 °C

## O=C(N/N=C/c1cccc(Cl)c1O)c1cccc(Cl)c1 [Compound 58]
Phytophthora capsici
  % Inhn Plus copper Predicted: 13.2%
Ustilago maydis
  % Inhn. Plus copper Predicted: 42.1%

## O=C(N/N=C/c1c(Cl)ccc(Cl)c1O)c1cccc(Cl)c1 [Compound 25]
Phytophthora capsici
  % Inhn Plus copper Predicted: 4.5%
Ustilago maydis
  % Inhn. Plus copper Predicted: 14.7%
